# Columns and labels:
# Assay type in all cases: in vivo
# transplanted rice = assay: Test Example 1: preemergence treatment under submerged conditions, effect on crop; details: dose 2.52 g/a
# Method in brief: (§1)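 Flooded-paddy preemergence assay; EC diluted with water, surface-applied at weed seeding; doses g/a; rice transplanted at 2.5 leaves; 0–5 mortality score after 3 weeks.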
# large crabgrass [1] = assay: Test Example 3: herbicidal effects in soil treatment; details: dose 3.2 g/a
# Method in brief: (§2)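 Seeds were sown in sterilized diluvial soil and covered with about 1.5 cm of soil. Compounds, formulated as emulsifiable concentrates and diluted with water, were sprayed evenly over the soil surface at set doses in g/a. Herbicidal effect was scored on a rating scale three weeks later.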
# Italian ryegrass [2] = assay: as above; details: dose 3.2 g/a
# Method in brief: as §2
# common chickweed [3] = assay: as above; details: dose 3.2 g/a
# Method in brief: as §2
# barnyardgrass [4] = assay: as above; details: dose 3.2 g/a
# Method in brief: as §2
# water foxtail [5] = assay: as above; details: dose 3.2 g/a
# Method in brief: as §2
# common lambsquater [6] = assay: as above; details: dose 3.2 g/a
# Method in brief: as §2
# common ragweed [7] = assay: as above; details: dose 3.2 g/a
# Method in brief: as §2
# velvetleaf [8] = assay: as above; details: dose 3.2 g/a
# Method in brief: as §2
# posumbu knotweed [9] = assay: as above; details: dose 3.2 g/a
# Method in brief: as §2
# redroot pigweed [10] = assay: as above; details: dose 3.2 g/a
# Method in brief: as §2
# giant foxtail [11] = assay: as above; details: dose 3.2 g/a
# Method in brief: as §2
# large crabgrass [12] = assay: Test Example 4: herbicidal effect in foliage treatment; details: dose 3.2 g/a, three weeks after application
# Method in brief: (§3)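 Foliar spray, post-emergence: 14-day-old greenhouse plants (25–30° C, diluvial soil) treated with water-diluted EC at set g/a doses; visual herbicidal score at 3 wk post-application.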
# Italian ryegrass [13] = assay: as above; details: dose 3.2 g/a, three weeks after application
# Method in brief: as §3
# common chickweed [14] = assay: as above; details: dose 3.2 g/a, three weeks after application
# Method in brief: as §3
# barnyardgrass [15] = assay: as above; details: dose 3.2 g/a, three weeks after application
# Method in brief: as §3
# water foxtail [16] = assay: as above; details: dose 3.2 g/a, three weeks after application
# Method in brief: as §3
# common lambsquater [17] = assay: as above; details: dose 3.2 g/a, three weeks after application
# Method in brief: as §3
# common ragweed [18] = assay: as above; details: dose 3.2 g/a, three weeks after application
# Method in brief: as §3
# velvetleaf [19] = assay: as above; details: dose 3.2 g/a, three weeks after application
# Method in brief: as §3
# posumbu knotweed [20] = assay: as above; details: dose 3.2 g/a, three weeks after application
# Method in brief: as §3
# redroot pigweed [21] = assay: as above; details: dose 3.2 g/a, three weeks after application
# Method in brief: as §3
# giant foxtail [22] = assay: as above; details: dose 3.2 g/a, three weeks after application
# Method in brief: as §3
# bulrush [23] = assay: Test Example 1: herbicidal effects in preemergence treatment under submerged conditions; details: dose 2.52 g/a
# Method in brief: as §1
# barnyardgrass [24] = assay: as above; details: dose 2.52 g/a
# Method in brief: as §1
# ducksalad [25] = assay: as above; details: dose 2.52 g/a
# Method in brief: as §1
# bulrush [26] = assay: Test Example 2: herbicidal effects during the vegetation period under submerged conditions; details: treatment during the vegetation period under submerged conditions; dose 2.52 g/a
# Method in brief: (§4)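 Barnyardgrass, bulrush and ducksalad were co-sown in alluvial soil flooded to 4 cm and grown in a greenhouse at 25 to 30° C. At the 1- or 2-leaf stage, water-diluted emulsifiable concentrates went onto the water surface at set doses (g/a). Herbicidal effect was scored three weeks later on a graded scale.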
# barnyardgrass [27] = assay: as above; details: treatment during the vegetation period under submerged conditions; dose 2.52 g/a
# Method in brief: as §4
# ducksalad [28] = assay: as above; details: treatment during the vegetation period under submerged conditions; dose 2.52 g/a
# Method in brief: as §4
compound,measurement,setting,value
CCOC(=O)N(c1ccccc1CN1COC(C)(C2CC2)CC1=O)S(=O)(=O)C(F)(F)F (centres unmarked) [II-45],"a: transplanted rice, effect on crop (evaluation scale 0-5)",transplanted rice,0 (mortality of less than 5% (almost ineffective))
same,"D: large crabgrass, herbicidal effect (evaluation scale 0-5)",large crabgrass [1],4 (mortality of at least 70% and less than 90%)
same,"H: Italian ryegrass, herbicidal effect (evaluation scale 0-5)",Italian ryegrass [2],4 (mortality of at least 70% and less than 90%)
same,"N: common chickweed, herbicidal effect (evaluation scale 0-5)",common chickweed [3],3 (mortality of at least 40% and less than 70%)
same,"A: barnyardgrass, herbicidal effect (evaluation scale 0-5)",barnyardgrass [4],5 (mortality of 90% or above (nearly complete death))
same,"G: water foxtail, herbicidal effect (evaluation scale 0-5)",water foxtail [5],5 (mortality of 90% or above (nearly complete death))
same,"L: common lambsquater, herbicidal effect (evaluation scale 0-5)",common lambsquater [6],0 (mortality of less than 5% (almost ineffective))
same,"J: common ragweed, herbicidal effect (evaluation scale 0-5)",common ragweed [7],4 (mortality of at least 70% and less than 90%)
same,"I: velvetleaf, herbicidal effect (evaluation scale 0-5)",velvetleaf [8],0 (mortality of less than 5% (almost ineffective))
same,"M: posumbu knotweed, herbicidal effect (evaluation scale 0-5)",posumbu knotweed [9],4 (mortality of at least 70% and less than 90%)
same,"K: redroot pigweed, herbicidal effect (evaluation scale 0-5)",redroot pigweed [10],0 (mortality of less than 5% (almost ineffective))
same,"E: giant foxtail, herbicidal effect (evaluation scale 0-5)",giant foxtail [11],4 (mortality of at least 70% and less than 90%)
same,"D: large crabgrass, herbicidal effect",large crabgrass [12],3 (mortality of at least 40% and less than 70%)
same,"H: Italian ryegrass, herbicidal effect",Italian ryegrass [13],4 (mortality of at least 70% and less than 90%)
same,"N: common chickweed, herbicidal effect",common chickweed [14],3 (mortality of at least 40% and less than 70%)
same,"A: barnyardgrass, herbicidal effect",barnyardgrass [15],4 (mortality of at least 70% and less than 90%)
same,"G: water foxtail, herbicidal effect",water foxtail [16],4 (mortality of at least 70% and less than 90%)
same,"L: common lambsquater, herbicidal effect",common lambsquater [17],3 (mortality of at least 40% and less than 70%)
same,"J: common ragweed, herbicidal effect",common ragweed [18],3 (mortality of at least 40% and less than 70%)
same,"I: velvetleaf, herbicidal effect",velvetleaf [19],2 (mortality of at least 20% and less than 40%)
same,"M: posumbu knotweed, herbicidal effect",posumbu knotweed [20],3 (mortality of at least 40% and less than 70%)
same,"K: redroot pigweed, herbicidal effect",redroot pigweed [21],0 (mortality of less than 5% (almost ineffective))
same,"E: giant foxtail, herbicidal effect",giant foxtail [22],2 (mortality of at least 20% and less than 40%)
same,"B: bulrush, herbicidal effect (evaluation scale 0-5)",bulrush [23],5 (mortality of 90% or above (nearly complete death))
same,"A: barnyardgrass, herbicidal effect (evaluation scale 0-5)",barnyardgrass [24],5 (mortality of 90% or above (nearly complete death))
same,"C: ducksalad, herbicidal effect (evaluation scale 0-5)",ducksalad [25],5 (mortality of 90% or above (nearly complete death))
same,"B: bulrush, herbicidal effect (evaluation scale 0-5)",bulrush [26],5 (mortality of 90% or above (nearly complete death))
same,"A: barnyardgrass, herbicidal effect (evaluation scale 0-5)",barnyardgrass [27],5 (mortality of 90% or above (nearly complete death))
same,"C: ducksalad, herbicidal effect (evaluation scale 0-5)",ducksalad [28],5 (mortality of 90% or above (nearly complete death))

# Source: patent publication US20120029187A1, “HALOALKYLSULFONANILIDE DERIVATIVE” (Nissan Chemical Industries, Ltd., priority 2009, published 2012)
